Measured values: ChEMBL document CHEMBL5137065, “Recent Advances with KDM4 Inhibitors and Potential Applications” (J Med Chem, 2022)

Key:
[1] = target: T1, Lysine-specific demethylase 4C (Homo sapiens, UniProt Q9H3R0); test: Inhibition of human KDM4C (1 to 347 residues) catalytic domain measured formaldehyde dehydrogenase (FDH)-coupled fluorescence assay
T1 sequence (Q9H3R0 whole entry): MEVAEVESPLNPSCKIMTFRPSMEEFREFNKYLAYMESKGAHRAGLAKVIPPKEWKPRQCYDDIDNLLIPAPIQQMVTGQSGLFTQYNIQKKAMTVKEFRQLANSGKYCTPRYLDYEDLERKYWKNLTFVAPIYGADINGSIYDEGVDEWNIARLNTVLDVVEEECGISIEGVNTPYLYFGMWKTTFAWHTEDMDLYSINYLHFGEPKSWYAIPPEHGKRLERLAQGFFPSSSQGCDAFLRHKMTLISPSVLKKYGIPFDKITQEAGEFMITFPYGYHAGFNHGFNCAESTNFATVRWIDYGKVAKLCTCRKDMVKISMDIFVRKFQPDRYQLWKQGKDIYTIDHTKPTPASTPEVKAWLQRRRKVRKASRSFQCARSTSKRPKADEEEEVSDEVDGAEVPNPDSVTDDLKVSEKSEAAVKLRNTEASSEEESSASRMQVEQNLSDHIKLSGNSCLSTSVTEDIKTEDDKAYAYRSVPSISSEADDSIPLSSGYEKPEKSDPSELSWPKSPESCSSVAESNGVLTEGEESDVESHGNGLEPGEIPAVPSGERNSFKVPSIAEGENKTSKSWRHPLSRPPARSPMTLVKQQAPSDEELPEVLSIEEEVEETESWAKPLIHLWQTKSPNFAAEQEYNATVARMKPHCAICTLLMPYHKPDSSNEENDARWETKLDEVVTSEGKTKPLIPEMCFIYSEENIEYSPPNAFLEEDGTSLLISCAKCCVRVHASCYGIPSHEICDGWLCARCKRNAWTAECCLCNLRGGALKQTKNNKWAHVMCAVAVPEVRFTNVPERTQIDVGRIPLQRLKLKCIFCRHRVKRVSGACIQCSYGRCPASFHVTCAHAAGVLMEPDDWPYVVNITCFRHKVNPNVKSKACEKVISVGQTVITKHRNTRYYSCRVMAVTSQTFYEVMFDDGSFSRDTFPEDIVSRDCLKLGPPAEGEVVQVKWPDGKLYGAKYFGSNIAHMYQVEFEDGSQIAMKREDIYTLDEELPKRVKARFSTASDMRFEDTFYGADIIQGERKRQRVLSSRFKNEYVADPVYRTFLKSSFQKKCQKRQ

[2] = target: T2, Lysine-specific demethylase 4B (Homo sapiens, UniProt O94953); test: Inhibition of human KDM4B (1 to 347 residues) catalytic domain measured formaldehyde dehydrogenase (FDH)-coupled fluorescence assay
T2 sequence (O94953 whole entry): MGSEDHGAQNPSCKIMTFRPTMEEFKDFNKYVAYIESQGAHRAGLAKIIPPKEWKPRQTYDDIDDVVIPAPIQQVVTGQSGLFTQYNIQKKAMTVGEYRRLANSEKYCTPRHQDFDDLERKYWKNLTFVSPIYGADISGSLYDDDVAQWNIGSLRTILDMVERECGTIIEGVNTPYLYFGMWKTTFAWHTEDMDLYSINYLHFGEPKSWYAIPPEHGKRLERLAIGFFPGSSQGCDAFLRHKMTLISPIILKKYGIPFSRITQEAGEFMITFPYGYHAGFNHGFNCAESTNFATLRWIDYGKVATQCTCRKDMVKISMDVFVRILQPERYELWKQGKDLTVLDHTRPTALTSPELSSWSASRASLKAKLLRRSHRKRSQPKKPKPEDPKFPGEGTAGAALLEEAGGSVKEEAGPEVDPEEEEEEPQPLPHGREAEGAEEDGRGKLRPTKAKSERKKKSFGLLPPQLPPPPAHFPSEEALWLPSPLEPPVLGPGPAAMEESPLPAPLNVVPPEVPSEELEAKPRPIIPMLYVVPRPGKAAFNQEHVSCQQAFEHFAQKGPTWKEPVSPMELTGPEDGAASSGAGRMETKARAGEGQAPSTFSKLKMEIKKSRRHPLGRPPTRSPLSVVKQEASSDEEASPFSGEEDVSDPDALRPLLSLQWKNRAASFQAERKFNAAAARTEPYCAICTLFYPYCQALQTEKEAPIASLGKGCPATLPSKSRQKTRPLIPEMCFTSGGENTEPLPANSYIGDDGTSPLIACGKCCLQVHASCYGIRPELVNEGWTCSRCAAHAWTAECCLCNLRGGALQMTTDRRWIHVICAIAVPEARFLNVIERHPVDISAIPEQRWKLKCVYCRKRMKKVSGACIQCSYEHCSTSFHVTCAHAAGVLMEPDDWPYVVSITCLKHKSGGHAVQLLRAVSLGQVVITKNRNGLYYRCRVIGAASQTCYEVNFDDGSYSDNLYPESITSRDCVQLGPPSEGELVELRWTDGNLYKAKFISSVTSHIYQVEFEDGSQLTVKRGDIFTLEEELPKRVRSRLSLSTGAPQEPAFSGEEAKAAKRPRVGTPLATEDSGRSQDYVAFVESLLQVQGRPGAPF

IC50 [1]: 4 µM
IC50 [2]: 4 µM
Compound: COC(=O)Cc1cc(O)n(-c2nc3ccccc3[nH]2)n1
